Experimental data taken from paper PMC8725448 (Journal of Cannabis Research, 2022).
Entries after “also recorded” stand apart in the source; their conditions may differ.

Tests used:
CaV3.1 = target: T1, CaV3.1 (Homo sapiens, UniProt O43497); test: Measurement of intracellular calcium, CaV3.1; format: cell-based; conditions: 10 μM; HEK293 cells expressing human CaV3.1
T1 construct: expressed in transfected cells; host or cells: Flp-In T-REx HEK (tetracycline-induced)
Description: (§1) Changes in intracellular calcium concentrations were measured in Flp-In™ T-REx™ HEK stably expressing either CaV3.1, CaV3.2, or CaV3.3 using Calcium 5 dye (Molecular Devices; Sunnyvale, USA) as previously described (Bladen et al. [2021]). Briefly, cells (120,000/well) were plated into a black, clear-bottomed poly-D-lysine coated, 96-well plate in the presence of 2 μg/mL tetracycline to induce channel expression and incubated overnight at 37°C in ambient CO2. Calcium 5 dye was diluted in HEPES-buffered low potassium Hanks Balanced Salt Solution (HBSS) at 50% of manufacturer’s recommendation. Dye solution containing probenecid (2.5 mM) was added and incubated for 60 min at 37°C in ambient CO2. Compounds were prepared as stock solutions in DMSO and diluted in HBSS with 0.01% bovine serum albumin. Compounds were applied for 5 min, then 10 mM CaCl2 was added. A FlexStation 3 Microplate reader (Molecular Devices; San Jose, USA) was used to take fluorescence readings every 2 s (excitation 485 nm, emission 525 nm). Baseline recordings were taken as the average fluorescence over 20 s preceding CaCl2 addition. Changes in fluorescence were measured as the maximal increase in fluorescence from baseline following CaCl2 addition and normalized to the response of vehicle. CaCl2 addition produced no effect in non-induced cells (Supplemental Fig. 2). Final drug concentrations had ≤ 0.1% DMSO. […]

CaV3.2 = target: T2, CaV3.2 (Homo sapiens, UniProt O95180); test: Measurement of intracellular calcium, CaV3.2; format: cell-based; conditions: 10 μM; HEK293 cells expressing human CaV3.2
T2 construct: expressed in transfected cells; host or cells: Flp-In T-REx HEK (tetracycline-induced)
T2 sequence (O95180 whole entry): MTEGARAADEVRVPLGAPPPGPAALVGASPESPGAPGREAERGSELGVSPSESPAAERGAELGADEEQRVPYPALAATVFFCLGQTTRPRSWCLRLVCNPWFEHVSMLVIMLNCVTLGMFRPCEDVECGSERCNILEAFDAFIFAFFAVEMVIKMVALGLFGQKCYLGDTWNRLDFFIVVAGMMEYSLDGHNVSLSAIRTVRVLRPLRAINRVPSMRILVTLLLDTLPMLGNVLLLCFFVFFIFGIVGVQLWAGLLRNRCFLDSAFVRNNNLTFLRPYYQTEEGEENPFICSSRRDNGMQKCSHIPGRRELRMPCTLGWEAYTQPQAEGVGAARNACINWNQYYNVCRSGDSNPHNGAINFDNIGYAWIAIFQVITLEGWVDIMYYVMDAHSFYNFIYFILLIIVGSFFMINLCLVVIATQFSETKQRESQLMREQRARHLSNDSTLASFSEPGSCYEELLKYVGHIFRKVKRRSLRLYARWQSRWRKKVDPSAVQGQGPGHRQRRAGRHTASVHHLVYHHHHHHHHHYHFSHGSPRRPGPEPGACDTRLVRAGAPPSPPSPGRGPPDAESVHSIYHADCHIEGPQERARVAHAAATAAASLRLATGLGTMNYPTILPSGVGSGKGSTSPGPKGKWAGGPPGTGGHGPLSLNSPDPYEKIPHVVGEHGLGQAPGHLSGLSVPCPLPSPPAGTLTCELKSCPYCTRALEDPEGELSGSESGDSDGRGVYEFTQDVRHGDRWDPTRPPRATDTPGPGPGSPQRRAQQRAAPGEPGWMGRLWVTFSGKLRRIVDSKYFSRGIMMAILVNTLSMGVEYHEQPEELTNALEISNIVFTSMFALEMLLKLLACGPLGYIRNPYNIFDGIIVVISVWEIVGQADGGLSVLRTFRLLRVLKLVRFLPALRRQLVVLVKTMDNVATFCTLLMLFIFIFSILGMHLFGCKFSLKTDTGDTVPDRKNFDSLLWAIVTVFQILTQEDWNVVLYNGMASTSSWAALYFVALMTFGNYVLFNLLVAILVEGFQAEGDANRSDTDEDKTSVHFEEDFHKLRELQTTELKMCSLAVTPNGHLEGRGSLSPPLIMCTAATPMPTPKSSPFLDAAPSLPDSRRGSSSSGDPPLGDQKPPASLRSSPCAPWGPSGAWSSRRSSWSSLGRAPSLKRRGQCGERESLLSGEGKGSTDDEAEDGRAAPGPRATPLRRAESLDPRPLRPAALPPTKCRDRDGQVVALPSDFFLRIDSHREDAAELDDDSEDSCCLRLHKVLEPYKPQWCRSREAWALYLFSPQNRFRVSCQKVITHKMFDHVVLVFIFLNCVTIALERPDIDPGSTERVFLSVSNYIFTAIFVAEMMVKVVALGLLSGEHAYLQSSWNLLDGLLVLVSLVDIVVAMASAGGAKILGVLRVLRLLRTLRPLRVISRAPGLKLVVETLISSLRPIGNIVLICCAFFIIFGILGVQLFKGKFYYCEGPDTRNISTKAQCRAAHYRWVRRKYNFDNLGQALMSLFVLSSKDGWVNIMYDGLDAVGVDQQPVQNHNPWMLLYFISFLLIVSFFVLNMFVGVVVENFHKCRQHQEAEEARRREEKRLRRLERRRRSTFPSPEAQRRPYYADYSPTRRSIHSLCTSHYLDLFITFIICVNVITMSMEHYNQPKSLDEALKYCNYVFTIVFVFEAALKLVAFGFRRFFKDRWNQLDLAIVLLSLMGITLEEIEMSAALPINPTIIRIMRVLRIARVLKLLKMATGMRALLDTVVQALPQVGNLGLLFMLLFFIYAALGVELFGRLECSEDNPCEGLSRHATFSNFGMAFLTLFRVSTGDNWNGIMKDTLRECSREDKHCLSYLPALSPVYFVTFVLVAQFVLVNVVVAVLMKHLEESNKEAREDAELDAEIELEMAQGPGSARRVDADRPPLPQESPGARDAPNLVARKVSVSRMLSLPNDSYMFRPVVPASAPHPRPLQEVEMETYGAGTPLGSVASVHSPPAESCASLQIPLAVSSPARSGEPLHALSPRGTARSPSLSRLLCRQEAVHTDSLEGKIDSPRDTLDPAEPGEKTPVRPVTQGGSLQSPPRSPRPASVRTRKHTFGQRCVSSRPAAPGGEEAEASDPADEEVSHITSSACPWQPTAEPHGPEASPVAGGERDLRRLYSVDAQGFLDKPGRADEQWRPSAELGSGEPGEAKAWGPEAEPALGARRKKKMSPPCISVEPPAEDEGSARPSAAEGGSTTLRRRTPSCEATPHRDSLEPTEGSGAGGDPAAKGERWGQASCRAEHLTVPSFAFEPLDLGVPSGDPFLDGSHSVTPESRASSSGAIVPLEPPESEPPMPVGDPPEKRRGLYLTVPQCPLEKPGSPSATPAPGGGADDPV
Description: as §1, with “vehicle.” for “vehicle. CaCl2 addition produced no effect in non-induced cells (Supplemental Fig. 2). Final drug concentrations had ≤ 0.1% DMSO.”

T1 sequence (O43497 whole entry): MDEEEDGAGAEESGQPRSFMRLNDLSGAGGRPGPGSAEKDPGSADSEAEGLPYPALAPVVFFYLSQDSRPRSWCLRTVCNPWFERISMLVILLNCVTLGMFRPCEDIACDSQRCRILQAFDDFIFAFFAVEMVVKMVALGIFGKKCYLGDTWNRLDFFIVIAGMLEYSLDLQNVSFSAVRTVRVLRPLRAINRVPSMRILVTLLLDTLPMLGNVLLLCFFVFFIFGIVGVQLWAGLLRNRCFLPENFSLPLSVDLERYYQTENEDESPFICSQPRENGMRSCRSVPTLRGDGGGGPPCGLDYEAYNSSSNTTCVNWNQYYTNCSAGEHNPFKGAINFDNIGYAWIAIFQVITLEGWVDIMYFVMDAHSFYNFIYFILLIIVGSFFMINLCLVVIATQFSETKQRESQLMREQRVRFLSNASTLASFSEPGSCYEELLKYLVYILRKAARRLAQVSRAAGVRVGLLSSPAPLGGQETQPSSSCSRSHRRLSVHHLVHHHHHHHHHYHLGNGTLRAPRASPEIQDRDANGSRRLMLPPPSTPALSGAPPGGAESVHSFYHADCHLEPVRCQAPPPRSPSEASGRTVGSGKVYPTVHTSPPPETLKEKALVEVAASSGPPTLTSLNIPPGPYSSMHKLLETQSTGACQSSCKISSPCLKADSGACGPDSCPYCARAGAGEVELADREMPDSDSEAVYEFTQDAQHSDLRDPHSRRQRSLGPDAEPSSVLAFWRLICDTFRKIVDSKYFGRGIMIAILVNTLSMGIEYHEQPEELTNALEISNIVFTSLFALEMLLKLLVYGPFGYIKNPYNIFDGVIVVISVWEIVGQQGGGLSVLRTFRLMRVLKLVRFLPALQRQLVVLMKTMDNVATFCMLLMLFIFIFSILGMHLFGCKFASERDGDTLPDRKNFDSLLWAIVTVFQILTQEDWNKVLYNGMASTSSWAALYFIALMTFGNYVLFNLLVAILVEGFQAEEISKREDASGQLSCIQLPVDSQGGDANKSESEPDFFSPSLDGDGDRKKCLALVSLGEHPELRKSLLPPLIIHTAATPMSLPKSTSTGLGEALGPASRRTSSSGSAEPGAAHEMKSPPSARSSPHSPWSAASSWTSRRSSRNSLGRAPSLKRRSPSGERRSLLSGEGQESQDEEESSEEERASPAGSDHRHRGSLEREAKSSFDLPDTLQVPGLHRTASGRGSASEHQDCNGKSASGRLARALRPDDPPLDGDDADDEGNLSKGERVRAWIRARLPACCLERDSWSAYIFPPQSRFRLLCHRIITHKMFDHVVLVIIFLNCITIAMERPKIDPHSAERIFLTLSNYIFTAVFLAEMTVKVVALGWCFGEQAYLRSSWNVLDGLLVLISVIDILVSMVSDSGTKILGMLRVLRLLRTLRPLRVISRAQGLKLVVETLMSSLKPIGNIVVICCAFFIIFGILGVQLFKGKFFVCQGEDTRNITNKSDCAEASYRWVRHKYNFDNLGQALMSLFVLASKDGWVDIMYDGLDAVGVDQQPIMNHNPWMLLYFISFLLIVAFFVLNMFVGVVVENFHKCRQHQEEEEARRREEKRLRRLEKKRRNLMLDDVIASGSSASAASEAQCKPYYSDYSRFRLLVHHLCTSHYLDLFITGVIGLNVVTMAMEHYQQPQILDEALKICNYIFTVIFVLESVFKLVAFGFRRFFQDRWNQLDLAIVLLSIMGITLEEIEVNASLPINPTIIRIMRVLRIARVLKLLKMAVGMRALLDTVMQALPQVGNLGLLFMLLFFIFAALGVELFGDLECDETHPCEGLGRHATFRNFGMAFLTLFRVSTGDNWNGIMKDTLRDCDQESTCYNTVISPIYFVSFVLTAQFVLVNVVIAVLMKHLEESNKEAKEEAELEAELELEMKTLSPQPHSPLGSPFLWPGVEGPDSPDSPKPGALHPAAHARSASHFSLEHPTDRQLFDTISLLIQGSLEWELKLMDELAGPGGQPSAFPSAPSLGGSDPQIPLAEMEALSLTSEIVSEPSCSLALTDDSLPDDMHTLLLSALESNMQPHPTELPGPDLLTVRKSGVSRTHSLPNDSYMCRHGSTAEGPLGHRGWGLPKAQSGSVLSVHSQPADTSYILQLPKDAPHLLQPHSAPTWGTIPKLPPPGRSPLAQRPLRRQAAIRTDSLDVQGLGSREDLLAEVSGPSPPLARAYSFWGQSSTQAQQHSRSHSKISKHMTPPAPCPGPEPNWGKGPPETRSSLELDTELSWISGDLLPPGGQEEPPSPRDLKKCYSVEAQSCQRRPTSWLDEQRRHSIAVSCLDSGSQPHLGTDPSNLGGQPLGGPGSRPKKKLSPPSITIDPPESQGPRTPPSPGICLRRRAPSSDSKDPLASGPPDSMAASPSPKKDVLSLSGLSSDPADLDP

Compound	inhibition of CaV3.1 (change in intracellular calcium relative to vehicle) (CaV3.1)	inhibition of CaV3.2 (change in intracellular calcium relative to vehicle) (CaV3.2)
CCCCCc1cc(O)c(C/C=C(\C)CCC=C(C)C)c(O)c1C(=O)OC [CBGA methyl ester]	Neither CBGA methyl ester nor olivetolic acid had any effect; also recorded: no effect	Neither CBGA methyl ester nor olivetolic acid had any effect; also recorded: no effect
CCCCCc1cc(O)cc(O)c1C(=O)O [Olivetolic acid]	Neither CBGA methyl ester nor olivetolic acid had any effect; also recorded: ineffective	Neither CBGA methyl ester nor olivetolic acid had any effect; also recorded: ineffective
